Reference: ChEMBL document CHEMBL2380271, “Synthesis and biological evaluation of a class of quinolone triazoles as potential antimicrobial agents and their interactions with calf thymus DNA” (2013)
Converted amounts (≈) assume the structure as drawn.

Key:
Shigella dysenteriae = test: Antibacterial activity against Shigella dysenteriae by NCCLS method; type: functional
Staphylococcus aureus [1] = test: Antibacterial activity against Staphylococcus aureus ATCC 25923 by NCCLS method; type: functional
Candida albicans = test: Antifungal activity against Candida albicans by NCCLS method; type: functional
Salmonella typhi = test: Antibacterial activity against Eberthella typhosa by NCCLS method; type: functional, Salmonella enterica subsp. enterica serovar Typhi; conditions: Salmonella enterica
Escherichia coli = test: Antibacterial activity against Escherichia coli DH52 by NCCLS method; type: functional
Cyberlindnera jadinii = test: Antifungal activity against Candida utilis by NCCLS method; type: functional; conditions: Williopsis jadinii
Aspergillus flavus = test: Antifungal activity against Aspergillus flavus by NCCLS method; type: functional
Micrococcus luteus = test: Antibacterial activity against Micrococcus luteus ATCC 4698 by NCCLS method; type: functional
Saccharomyces cerevisiae = test: Antifungal activity against Saccharomyces cerevisiae by NCCLS method; type: functional
Staphylococcus aureus [2] = test: Antibacterial activity against methicillin-resistant Staphylococcus aureus N315 by NCCLS method; type: functional
Pseudomonas aeruginosa = test: Antibacterial activity against Pseudomonas aeruginosa by NCCLS method; type: functional
Staphylococcus aureus [3] = test: Ratio of norfloxacin MIC to compound MIC for methicillin-resistant Staphylococcus aureus N315; type: functional
Staphylococcus aureus [4] = test: Ratio of chloromycin MIC to compound MIC for methicillin-resistant Staphylococcus aureus N315; type: functional

Compound	MIC (Shigella dysenteriae) [mg/L]	MIC (Staphylococcus aureus [1]) [mg/L]	MIC (Candida albicans) [mg/L]	MIC (Salmonella typhi) [mg/L]	MIC (Escherichia coli) [mg/L]	MIC (Cyberlindnera jadinii) [mg/L]	MIC (Aspergillus flavus) [mg/L]	MIC (Micrococcus luteus) [mg/L]	MIC (Saccharomyces cerevisiae) [mg/L]	MIC (Staphylococcus aureus [2]) [mg/L]	MIC (Pseudomonas aeruginosa) [mg/L]	Ratio (Staphylococcus aureus [3])	Ratio (Staphylococcus aureus [4])
O=C(O)c1cn(CC(O)Cn2cncn2)c2cc(Cl)c(F)cc2c1=O (stereo not drawn)	64 (≈ 175 µM)	64 (≈ 175 µM)	16 (≈ 43.6 µM)	4 (≈ 10.9 µM)	8 (≈ 21.8 µM)	> 512	128 (≈ 349 µM)	16 (≈ 43.6 µM)	256 (≈ 698 µM)	64 (≈ 175 µM)	2 (≈ 5.45 µM)	–	–
O=C(O)c1cn(CC(O)Cn2cncn2)c2c(Cl)cc(Cl)cc2c1=O (stereo not drawn)	4 (≈ 10.4 µM)	64 (≈ 167 µM)	32 (≈ 83.5 µM)	16 (≈ 41.8 µM)	64 (≈ 167 µM)	> 512	256 (≈ 668 µM)	64 (≈ 167 µM)	128 (≈ 334 µM)	4 (≈ 10.4 µM)	8 (≈ 20.9 µM)	–	–
CCn1cc(C(=O)O)c(=O)c2cc(F)c(N3CCNCC3)cc21 [NORFLOXACIN]	4 (≈ 12.5 µM)	0.5 (≈ 1.57 µM)	> 512	4 (≈ 12.5 µM)	16 (≈ 50.1 µM)	> 512	> 512	2 (≈ 6.26 µM)	> 512	8 (≈ 25.1 µM)	1 (≈ 3.13 µM)	–	–
OC(Cn1cncn1)(Cn1cncn1)c1ccc(F)cc1F [FLUCONAZOLE]	> 512	> 512	1 (≈ 3.27 µM)	> 512	> 512	8 (≈ 26.1 µM)	256 (≈ 836 µM)	> 512	16 (≈ 52.2 µM)	> 512	> 512	–	–
O=C(O)c1cn(CC(O)Cn2cncn2)c2c(F)cc(F)cc2c1=O (stereo not drawn)	16 (≈ 45.7 µM)	2 (≈ 5.71 µM)	8 (≈ 22.8 µM)	1 (≈ 2.85 µM)	2 (≈ 5.71 µM)	> 512	256 (≈ 731 µM)	2 (≈ 5.71 µM)	512 (≈ 1460 µM)	8 (≈ 22.8 µM)	2 (≈ 5.71 µM)	–	–
O=C(O)c1cn(CC(O)Cn2cncn2)c2cc(C(F)(F)F)ccc2c1=O (stereo not drawn)	1 (≈ 2.62 µM)	1 (≈ 2.62 µM)	1 (≈ 2.62 µM)	4 (≈ 10.5 µM)	8 (≈ 20.9 µM)	> 512	512 (≈ 1340 µM)	2 (≈ 5.23 µM)	256 (≈ 670 µM)	1 (≈ 2.62 µM)	8 (≈ 20.9 µM)	8	16
CCOC(=O)c1cn(CC(O)Cn2cncn2)c2cc(Cl)c(F)cc2c1=O (racemic)	32 (≈ 81.1 µM)	64 (≈ 162 µM)	8 (≈ 20.3 µM)	1 (≈ 2.53 µM)	32 (≈ 81.1 µM)	> 512	16 (≈ 40.5 µM)	4 (≈ 10.1 µM)	512 (≈ 1300 µM)	4 (≈ 10.1 µM)	4 (≈ 10.1 µM)	–	–
CCOC(=O)c1cn(CC(O)Cn2cncn2)c2ccc(C)cc2c1=O (racemic)	4 (≈ 11.2 µM)	64 (≈ 180 µM)	128 (≈ 359 µM)	4 (≈ 11.2 µM)	4 (≈ 11.2 µM)	> 512	256 (≈ 718 µM)	16 (≈ 44.9 µM)	64 (≈ 180 µM)	2 (≈ 5.61 µM)	2 (≈ 5.61 µM)	–	–
CCOC(=O)c1cn(CC(O)Cn2cncn2)c2c(F)cccc2c1=O (racemic)	8 (≈ 22.2 µM)	64 (≈ 178 µM)	32 (≈ 88.8 µM)	0.5 (≈ 1.39 µM)	8 (≈ 22.2 µM)	> 512	512 (≈ 1420 µM)	2 (≈ 5.55 µM)	32 (≈ 88.8 µM)	128 (≈ 355 µM)	32 (≈ 88.8 µM)	–	–
O=C(O)c1cn(CC(O)Cn2cncn2)c2c(F)cccc2c1=O (stereo not drawn)	1 (≈ 3.01 µM)	32 (≈ 96.3 µM)	16 (≈ 48.2 µM)	64 (≈ 193 µM)	4 (≈ 12 µM)	> 512	128 (≈ 385 µM)	8 (≈ 24.1 µM)	256 (≈ 770 µM)	64 (≈ 193 µM)	8 (≈ 24.1 µM)	–	–
CCOC(=O)c1cn(CC2CO2)c2ccc(C)cc2c1=O (racemic)	128 (≈ 446 µM)	256 (≈ 891 µM)	2 (≈ 6.96 µM)	2 (≈ 6.96 µM)	128 (≈ 446 µM)	256 (≈ 891 µM)	16 (≈ 55.7 µM)	32 (≈ 111 µM)	64 (≈ 223 µM)	16 (≈ 55.7 µM)	32 (≈ 111 µM)	–	–
